Experimental data published in patent US20020173538A1, “Method for sensitizing cancer cells to cancer therapies with a mevalonate-reducing compound” (priority 2000, published 2002).
Where two headings read alike, the source gives them in different places. Marks after values point to notes of the source that are not given here.

Key:
[1] = tested on: Hep 3B cells; assay: MTT cell viability assay, Hep 3B cells (serum-free DMEM)
Source text: Human hepatoma cell lines Hep G2 and Hep 3 were chosen as the in vitro models of hepatocytes and hepatoma, respectively.

[2] = tested on: Hep 3B/T2 cells; assay: Tumor growth of Hep 3B/T2 cells in nude mice; type: in vivo, BALB/c-nu/nu nude mice; details: for Tumor size: LOV 75 mg/kg/day p.o. days 8-14 and/or taxol 120 μg/kg/day i.p. days 15-19, n = 3
[3] = tested on: Hep 3B cells; assay: Cell cycle determination by flow cytometry, Hep 3B; type: cell-based, human; details: cell line not given
[4] = no lovastatin 48 hr, then taxol 10 nM 48 hr
[5] = no lovastatin 72 hr, then taxol 2 nM 72 hr
[6] = no lovastatin 72 hr, then taxol 5 nM 48 hr
[7] = no lovastatin 72 hr, then taxol 5 nM 72 hr
[8] = no lovastatin 72 hr, then taxol 10 nM 72 hr

Structure (SMILES): CC(=O)O[C@H]1C(=O)[C@@]2(C)[C@H]([C@H](OC(=O)c3ccccc3)[C@]3(O)C[C@H](OC(=O)[C@H](O)[C@@H](NC(=O)c4ccccc4)c4ccccc4)C(C)=C1C3(C)C)[C@]1(OC(C)=O)CO[C@@H]1C[C@@H]2O [Taxol, paclitaxel]
- viability at 0.002 µM ([1]; Homo sapiens, Hep3B, 72 h, read-out: Cell viability, taxol 2 nM, 72 hr, Table 9): 94 ± 3.6%
- viability at 0.005 µM ([1]; Homo sapiens, Hep3B, 72 h, read-out: Cell viability, taxol 5 nM, 72 hr): 91.7 ± 3.7%
- viability at 0.005 µM ([1]; Homo sapiens, Hep3B, 72 h, read-out: Cell viability, taxol 5 nM, 72 hr, Table 9): 91.7 ± 3.7%
- viability at 0.01 µM ([1]; Homo sapiens, Hep3B, 72 h, read-out: Cell viability, taxol 10 nM, 72 hr): 88.5 ± 2.4%
- viability at 0.01 µM ([1]; Homo sapiens, Hep3B, 72 h, read-out: Cell viability, taxol 10 nM, 72 hr, Table 9): 88.5 ± 2.4%
- viability at 0.02 µM ([1]; Homo sapiens, Hep3B, 72 h, read-out: Cell viability, taxol 20 nM, 72 hr): 85.6 ± 1.1%
- viability at 0.05 µM ([1]; Homo sapiens, Hep3B, 72 h, read-out: Cell viability, taxol 50 nM, 72 hr): 71.2 ± 4.2%
- viability at 0.1 µM ([1]; Homo sapiens, Hep3B, 72 h, read-out: Cell viability, taxol 100 nM, 72 hr): 52.7 ± 2.8%
- viability at 0.2 µM ([1]; Homo sapiens, Hep3B, 72 h, read-out: Cell viability, taxol 200 nM, 72 hr): 47 ± 1%
- viability at 0.5 µM ([1]; Homo sapiens, Hep3B, 72 h, read-out: Cell viability, taxol 500 nM, 72 hr): 32.2 ± 4.7%
- viability at 1 µM ([1]; Homo sapiens, Hep3B, 72 h, read-out: Cell viability, taxol 1000 nM, 72 hr): 24.6 ± 2.9%
- IC50 ([1]; Homo sapiens, Hep3B, 72 h, read-out: IC50 (cell viability), 72 hr, Table 8): 0.147 ± 0.0142 µM
- IC50 ([1]; Homo sapiens, Hep3B, 72 h, read-out: IC50 (cell viability), 72 hr, Table 9): 0.0435 µM
- viability at 0.002 µM ([1]; Homo sapiens, Hep3B, 96 h, read-out: Cell viability, taxol 2 nM alone, 96 hr, Table 10): 92.6 ± 1.9%
- viability at 0.002 µM ([1]; Homo sapiens, Hep3B, 96 h, read-out: Cell viability, taxol 2 nM, 96 hr): 94.1 ± 7.9%
- viability at 0.005 µM ([1]; Homo sapiens, Hep3B, 96 h, read-out: Cell viability, taxol 5 nM alone, 96 hr, Table 10): 79.5 ± 4.6%
- viability at 0.005 µM ([1]; Homo sapiens, Hep3B, 96 h, read-out: Cell viability, taxol 5 nM, 96 hr): 92.4 ± 4.8%
- viability at 0.01 µM ([1]; Homo sapiens, Hep3B, 96 h, read-out: Cell viability, taxol 10 nM alone, 96 hr, Table 10): 60.3 ± 3.4%
- viability at 0.01 µM ([1]; Homo sapiens, Hep3B, 96 h, read-out: Cell viability, taxol 10 nM, 96 hr): 82.3 ± 6.6%
- IC50 ([1]; Homo sapiens, Hep3B, 96 h, read-out: IC50 (cell viability), 96 hr): 0.0282 µM
- viability at 0.002 µM ([1]; Homo sapiens, Hep3B, 120 h, read-out: Cell viability, taxol 2 nM, 120 hr): 94.2 ± 2.5%
- viability at 0.005 µM ([1]; Homo sapiens, Hep3B, 120 h, read-out: Cell viability, taxol 5 nM, 120 hr): 82.7 ± 3.7%
- viability at 0.01 µM ([1]; Homo sapiens, Hep3B, 120 h, read-out: Cell viability, taxol 10 nM, 120 hr): 71.9 ± 4.6%
- IC50 ([1]; Homo sapiens, Hep3B, 120 h, read-out: IC50 (cell viability), 120 hr): 0.0178 µM
- Cell viability ([1]; no lovastatin 48 hr, then taxol 2 nM 48 hr): 102.4 ± 4.7^a % of control
- Ratio, inhibition (%) Hep 3B/inhibition (%) Hep G2 ([1]; no lovastatin 48 hr, then taxol 5 nM 48 hr): 0.3***
- Cell viability [1, 4]: 76.3 ± 1.3^c % of control
- Ratio, inhibition (%) Hep 3B/inhibition (%) Hep G2 [1, 4]: 0.6***
- Ratio, inhibition (%) Hep 3B/inhibition (%) Hep G2 ([1]; no lovastatin 72 hr, then taxol 2 nM 48 hr): 0.4***
- Cell viability [1, 5]: 91.1 ± 1.1^b % of control
- Ratio, inhibition (%) Hep 3B/inhibition (%) Hep G2 [1, 5]: 0.4*
- Cell viability [1, 6]: 86.9 ± 1.3^b % of control
- Ratio, inhibition (%) Hep 3B/inhibition (%) Hep G2 [1, 6]: 0.4***
- Cell viability [1, 7]: 96.5 ± 0.6^a % of control
- Ratio, inhibition (%) Hep 3B/inhibition (%) Hep G2 [1, 7]: 0.1***
- Ratio, inhibition (%) Hep 3B/inhibition (%) Hep G2 ([1]; no lovastatin 72 hr, then taxol 10 nM 48 hr): 0.4**
- Cell viability [1, 8]: 78.0 ± 0.4^c % of control
- Ratio, inhibition (%) Hep 3B/inhibition (%) Hep G2 [1, 8]: 0.6**
- Ratio, inhibition (%) Hep 3B/inhibition (%) Hep G2 ([1]; taxol 2 nM alone, 96 hr, Table 10): 0.3**
- Ratio, inhibition (%) Hep 3B/inhibition (%) Hep G2 ([1]; taxol 2 nM, 48 hr): 1.3*
- Ratio, inhibition (%) Hep 3B/inhibition (%) Hep G2 ([1]; taxol 2 nM, 72 hr): 0.6*
- Ratio, inhibition (%) Hep 3B/inhibition (%) Hep G2 ([1]; taxol 5 nM alone, 96 hr, Table 10): 0.4**
- Ratio, inhibition (%) Hep 3B/inhibition (%) Hep G2 ([1]; taxol 5 nM, 48 hr): 0.3**
- Ratio, inhibition (%) Hep 3B/inhibition (%) Hep G2 ([1]; taxol 5 nM, 72 hr): 0.2**
- Ratio, inhibition (%) Hep 3B/inhibition (%) Hep G2 ([1]; taxol 10 nM alone, 96 hr, Table 10): 0.5***
- Ratio, inhibition (%) Hep 3B/inhibition (%) Hep G2 ([1]; taxol 10 nM, 48 hr): 0.4***
- Ratio, inhibition (%) Hep 3B/inhibition (%) Hep G2 ([1]; taxol 10 nM, 72 hr): 0.2***
- Ratio, inhibition (%) Hep 3B/inhibition (%) Hep G2 ([1]; taxol 20 nM, 48 hr): 0.3***
- Ratio, inhibition (%) Hep 3B/inhibition (%) Hep G2 ([1]; taxol 20 nM, 72 hr): 0.2***
- Ratio, inhibition (%) Hep 3B/inhibition (%) Hep G2 ([1]; taxol 50 nM, 48 hr): 0.3***
- Ratio, inhibition (%) Hep 3B/inhibition (%) Hep G2 ([1]; taxol 50 nM, 72 hr): 0.4***
- Ratio, inhibition (%) Hep 3B/inhibition (%) Hep G2 ([1]; taxol 100 nM, 48 hr): 0.4**
- Ratio, inhibition (%) Hep 3B/inhibition (%) Hep G2 ([1]; taxol 100 nM, 72 hr): 0.6**
- Ratio, inhibition (%) Hep 3B/inhibition (%) Hep G2 ([1]; taxol 200 nM, 48 hr): 0.5**
- Ratio, inhibition (%) Hep 3B/inhibition (%) Hep G2 ([1]; taxol 200 nM, 72 hr): 0.6**
- Ratio, inhibition (%) Hep 3B/inhibition (%) Hep G2 ([1]; taxol 500 nM, 48 hr): 0.6**
- Ratio, inhibition (%) Hep 3B/inhibition (%) Hep G2 ([1]; taxol 500 nM, 72 hr): 0.8**
- Ratio, inhibition (%) Hep 3B/inhibition (%) Hep G2 ([1]; taxol 1000 nM, 48 hr): 0.5**
- Ratio, inhibition (%) Hep 3B/inhibition (%) Hep G2 ([1]; taxol 1000 nM, 72 hr): 0.8**
- percentage of inhibition of tumor size ([2]; Cycle 1 (Day 42), LOV 37.5 mg/kg/day p.o. days 28-34 and 49-55 and/or taxol 120 μg/kg/2 day i.p. day 36, 38, 40, 57, 59, 61): (−54.2%
- Tumor size ([2]; Day 8): 0.111 cm^3
- Tumor size ([2]; Day 11): 0.125 cm^3
- Tumor size ([2]; Day 17): 0.063 cm^3
- Tumor size ([2]; Day 26): 0.064 cm^3
- Tumor size ([2]; Day 29): 0.137 cm^3
- Tumor size (1 × w^2 × 0.52 cm^3) Day 35 ([2]; Day 35 after inoculation, p.o. lovastatin 37.5 mg/kg/day (days 28-34, 49-55) and/or i.p. taxol 120 μg/kg/2 day (days 36, 38, 40, 57, 59, 61), mean ± SEM): 0.400 cm^3
- Tumor size (1 × w^2 × 0.52 cm^3) Day 38 ([2]; Day 38 after inoculation, p.o. lovastatin 37.5 mg/kg/day (days 28-34, 49-55) and/or i.p. taxol 120 μg/kg/2 day (days 36, 38, 40, 57, 59, 61), mean ± SEM): 0.415 cm^3
- Tumor size (1 × w^2 × 0.52 cm^3) Day 42 ([2]; Day 42 after inoculation, p.o. lovastatin 37.5 mg/kg/day (days 28-34, 49-55) and/or i.p. taxol 120 μg/kg/2 day (days 36, 38, 40, 57, 59, 61), mean ± SEM): 0.465 cm^3
- Tumor size (1 × w^2 × 0.52 cm^3) Day 49 ([2]; Day 49 after inoculation, p.o. lovastatin 37.5 mg/kg/day (days 28-34, 49-55) and/or i.p. taxol 120 μg/kg/2 day (days 36, 38, 40, 57, 59, 61), mean ± SEM): 0.811 cm^3
- Tumor size (1 × w^2 × 0.52 cm^3) Day 56 ([2]; Day 56 after inoculation, p.o. lovastatin 37.5 mg/kg/day (days 28-34, 49-55) and/or i.p. taxol 120 μg/kg/2 day (days 36, 38, 40, 57, 59, 61), mean ± SEM): 0.996 cm^3
- Tumor size (1 × w^2 × 0.52 cm^3) Day 63 ([2]; Day 63 after inoculation, p.o. lovastatin 37.5 mg/kg/day (days 28-34, 49-55) and/or i.p. taxol 120 μg/kg/2 day (days 36, 38, 40, 57, 59, 61), mean ± SEM): 1.424 cm^3
- cell cycle arrest stage [3]: G2/M arrest
